What is called IC50 is the concentration that inhibits the measured activity by half.

Structures are written as SMILES.

We go through 32 compounds from patent US20250179078A1, “INHIBITORS OF NLRP3” (PTC THERAPEUTICS, INC., priority 2022, published 2025).

T1 sequence (Q96P20 whole entry): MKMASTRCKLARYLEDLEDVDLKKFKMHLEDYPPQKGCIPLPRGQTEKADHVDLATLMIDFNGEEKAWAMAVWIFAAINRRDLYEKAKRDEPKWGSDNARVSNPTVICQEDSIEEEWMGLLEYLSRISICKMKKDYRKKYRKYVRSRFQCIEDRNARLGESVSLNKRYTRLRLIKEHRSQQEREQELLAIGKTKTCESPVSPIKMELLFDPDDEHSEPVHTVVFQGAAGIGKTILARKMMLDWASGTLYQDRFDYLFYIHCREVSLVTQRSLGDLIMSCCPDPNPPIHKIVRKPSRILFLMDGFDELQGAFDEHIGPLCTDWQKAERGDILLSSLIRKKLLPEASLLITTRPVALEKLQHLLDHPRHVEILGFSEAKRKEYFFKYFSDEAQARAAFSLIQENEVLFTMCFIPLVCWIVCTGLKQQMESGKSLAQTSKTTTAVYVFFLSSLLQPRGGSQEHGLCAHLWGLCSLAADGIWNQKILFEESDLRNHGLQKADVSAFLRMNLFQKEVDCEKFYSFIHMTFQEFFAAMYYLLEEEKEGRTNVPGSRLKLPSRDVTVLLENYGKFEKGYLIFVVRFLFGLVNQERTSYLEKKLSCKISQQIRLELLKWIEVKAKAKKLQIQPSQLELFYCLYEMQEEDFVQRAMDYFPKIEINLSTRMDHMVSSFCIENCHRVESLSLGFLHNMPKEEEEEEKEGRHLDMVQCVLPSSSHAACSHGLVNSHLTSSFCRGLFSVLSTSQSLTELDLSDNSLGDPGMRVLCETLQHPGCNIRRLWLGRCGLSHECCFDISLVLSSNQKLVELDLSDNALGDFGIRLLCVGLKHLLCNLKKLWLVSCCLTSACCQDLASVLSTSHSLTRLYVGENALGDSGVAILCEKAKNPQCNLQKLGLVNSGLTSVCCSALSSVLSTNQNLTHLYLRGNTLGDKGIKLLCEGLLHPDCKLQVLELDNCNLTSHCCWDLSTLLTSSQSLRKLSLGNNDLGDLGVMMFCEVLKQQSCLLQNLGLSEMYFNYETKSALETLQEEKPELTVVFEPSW

The assay concerns the target T1, NLRP3 (Homo sapiens, UniProt Q96P20).
T1 construct: host or cells: THP-1 cells differentiated with PMA
Kind of assay: IL-1β Secretion Assay (NLRP3-dependent IL1β secretion in THP1 cells). The conditions noted are these: PMA-differentiated THP-1 cells; compounds incubated 20 h; 2.5 μM Nigericin 3 h; HTRF IL-1β readout; read-out: IC50 IL-1β Inhibition. The format is cell-based. In a few lines: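 IL-1β in conditioned media, measured by HTRF after 3 h 2.5 μM nigericin stimulation, gave % inhibition fitted logistically for IC50. Before that, PMA-differentiated (100 ng/mL, 24 h) THP-1 cells were preincubated 20 h with 7 compound concentrations (3-fold serial, DMSO 1:200).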
(In general: In TR-FRET formats the signal depends on donor and acceptor labels being close together.)
Take `COc1ccc(-c2nnc(N[C@@H]3CCCN(C)C3)n3cccc23)c(C)c1` [Compound 26, 1-(4-methoxy-2-methylphenyl)-N-[(3R)-1-methylpiperidin-3-yl]pyrrolo[1,2-d][1,2,4]triazin-4-amine]: the IC50 was in the range of 10 to 100 nM.

`COc1ccc(-c2nnc(NC(C)c3cccc(O)c3)n3cncc23)c(C(F)(F)F)c1` (centres unmarked) [Compound 251, 3-[1-({1-[4-methoxy-2-(trifluoromethyl)phenyl]imidazo[1,5-d][1,2,4]triazin-4-yl}amino)ethyl]phenol]: the IC50 is less than 1 nM.

As for `COc1ccc(-c2nnc(N[C@@H]3C[C@@H](F)CN(C)C3)n3cncc23)c(OC(F)(F)F)c1` [Compound 210, N-[(3R,5R)-5-fluoro-1-methylpiperidin-3-yl]-1-[4-methoxy-2-(trifluoromethoxy)phenyl]imidazo[1,5-d][1,2,4]triazin-4-amine], the IC50 is 1 to 10 nM.

Turning to `COc1ccc(-c2nnc(NC3CCNC3=O)n3cccc23)c(CC(F)(F)F)c1` (centres unmarked) [Compound 139, 3-({1-[4-methoxy-2-(2,2,2-trifluoroethyl)phenyl]pyrrolo[1,2-d][1,2,4]triazin-4-yl}amino)pyrrolidin-2-one], the IC50 lay in the range of 1 to 10 nM.

`CCN1CCC[C@@H](Nc2nnc(-c3ccc(C(F)(F)F)cc3C(F)(F)F)c3cncn23)C1` [Compound 271, 1-[2,4-bis(trifluoromethyl)phenyl]-N-[(3R)-1-ethylpiperidin-3-yl]imidazo[1,5-d][1,2,4]triazin-4-amine]: the IC50 is less than 1 nM.

Regarding `OC[C@H]1C[C@@H](Nc2nnc(-c3ccc(C(F)(F)F)cc3C(F)(F)F)c3cncn23)C1` [Compound 257, [(1s,3s)-3-({1-[2,4-bis(trifluoromethyl)phenyl]imidazo[1,5-d][1,2,4]triazin-4-yl}amino)cyclobutyl]methanol], the IC50 fell in the range of 1 to 10 nM.

As for `CCN1CCC[C@@H](Nc2nnc(-c3ccc(Cl)cc3Cl)c3cc(C)nn23)C1` [Compound 376, 4-(2,4-dichlorophenyl)-N-[(3R)-1-ethylpiperidin-3-yl]-2-methylpyrazolo[1,5-d][1,2,4]triazin-7-amine], the IC50 lay in the range of 1 to 10 nM.

For `O=C1NCCC1Nc1nnc(-c2ccc(C(F)(F)F)cc2CC(F)(F)F)c2cccn12` (centres unmarked) [Compound 77, 3-({1-[2-(2,2,2-trifluoroethyl)-4-(trifluoromethyl)phenyl]pyrrolo[1,2-d][1,2,4]triazin-4-yl}amino)pyrrolidin-2-one], the half-inhibitory concentration (IC50) lay in the range of 1 to 10 nM.

As for `O[C@@H]1CCCC[C@H]1Nc1nnc(-c2ccc(OC(F)F)cc2OC(F)(F)F)c2cccn12` [Compound 168, (1R,2R)-2-({1-[4-(difluoromethoxy)-2-(trifluoromethoxy)phenyl]pyrrolo[1,2-d][1,2,4]triazin-4-yl}amino)cyclohexan-1-ol], the IC50 lay within 1 to 10 nM.

Turning to `Cc1ccc(-c2nnc(N[C@@H]3CCCN(CCO)C3)n3cccc23)c(OC(F)F)c1` [Compound 45, 2-[(3R)-3-({1-[2-(difluoromethoxy)-4-methylphenyl]pyrrolo[1,2-d][1,2,4]triazin-4-yl}amino)piperidin-1-yl]ethan-1-ol], the IC50 was 10 to 100 nM.

As for `COc1ccc(-c2nnc(Nc3cc[nH]n3)n3cccc23)c(C2CC2)c1` [Compound 105, 1-(2-cyclopropyl-4-methoxyphenyl)-N-(1H-pyrazol-3-yl)pyrrolo[1,2-d][1,2,4]triazin-4-amine], the IC50 was in the range of 100 to 300 nM.

Regarding `O[C@@H]1CCCC[C@H]1Nc1nnc(-c2ccc(OC(F)F)cc2OC(F)(F)F)c2cncn12` [Compound 246, (1R,2R)-2-({1-[4-(difluoromethoxy)-2-(trifluoromethoxy)phenyl]imidazo[1,5-d][1,2,4]triazin-4-yl}amino)cyclohexan-1-ol], the IC50 was less than 1 nM.

On to `C[C@]1(O)C[C@@H](Nc2nnc(-c3ccc(C(F)(F)F)cc3C(F)(F)F)c3c(F)ccn23)C1` [Compound 38, (1s,3s)-3-({1-[2,4-bis(trifluoromethyl)phenyl]-8-fluoropyrrolo[1,2-d][1,2,4]triazin-4-yl}amino)-1-methylcyclobutan-1-ol], for which the IC50 lay within 10 to 100 nM.

Take `O[C@H]1COCC[C@@H]1Nc1nnc(-c2ccc(C(F)(F)F)cc2CC(F)(F)F)c2cccn12` [Compound 113, (3R,4S)-4-({1-[2-(2,2,2-trifluoroethyl)-4-(trifluoromethyl)phenyl]pyrrolo[1,2-d][1,2,4]triazin-4-yl}amino)oxan-3-ol]: the IC50 fell in the range of 1 to 10 nM.

Turning to `COc1ccc(-c2nnc(NC3CCCN(C)C3=O)n3cncc23)c(CC(F)(F)F)c1` (centres unmarked) [Compound 330, 3-({1-[4-methoxy-2-(2,2,2-trifluoroethyl)phenyl]imidazo[1,5-d][1,2,4]triazin-4-yl}amino)-1-methylpiperidin-2-one], the half-maximal inhibitory concentration (IC50) lay within 10 to 100 nM.

`COc1ccc(-c2nnc(N[C@@H]3CCOC3)n3cccc23)c(OC(F)(F)F)c1` [Compound 68, 1-[4-methoxy-2-(trifluoromethoxy)phenyl]-N-[(3R)-oxolan-3-yl]pyrrolo[1,2-d][1,2,4]triazin-4-amine]: the IC50 fell in the range of 10 to 100 nM.

In the case of `FC(F)Oc1ccc(-c2nnc(Nc3cc[nH]n3)n3cccc23)c(OC(F)(F)F)c1` [Compound 155, 1-[4-(difluoromethoxy)-2-(trifluoromethoxy)phenyl]-N-(1H-pyrazol-3-yl)pyrrolo[1,2-d][1,2,4]triazin-4-amine], the IC50 was in the range of 10 to 100 nM.

As for `O[C@@H]1CCCC[C@H]1Nc1nnc(-c2ccc(C(F)(F)F)cc2OC(F)(F)F)c2cccn12` [Compound 151, (1R,2R)-2-({1-[2-(trifluoromethoxy)-4-(trifluoromethyl)phenyl]pyrrolo[1,2-d][1,2,4]triazin-4-yl}amino)cyclohexan-1-ol], the IC50 lay in the range of 1 to 10 nM.

Consider `COc1ccc(-c2nnc(NC(C)c3cccnc3)n3cncc23)c(OC(F)(F)F)c1` (single isomer, unassigned) [Compound 308], for which the IC50 lay within 100 to 300 nM.

As to `COc1ccc(-c2nnc(N[C@@H]3CCCN(C)C3)n3cncc23)c(OC(F)F)c1` [Compound 216, 1-[2-(difluoromethoxy)-4-methoxyphenyl]-N-[(3R)-1-methylpiperidin-3-yl]imidazo[1,5-d][1,2,4]triazin-4-amine], the IC50 lay within 1 to 10 nM.

In the case of `FC(F)Oc1cc(C(F)(F)F)ccc1-c1nnc(N[C@@H]2CCCNC2)n2cccc12` [Compound 35, 1-[2-(difluoromethoxy)-4-(trifluoromethyl)phenyl]-N-[(3R)-piperidin-3-yl]pyrrolo[1,2-d][1,2,4]triazin-4-amine], the IC50 was 10 to 100 nM.

As for `COc1ccc(-c2nnc(NCc3ncnn3C)n3cccc23)c(OC(F)(F)F)c1` [Compound 93, 1-[4-methoxy-2-(trifluoromethoxy)phenyl]-N-[(1-methyl-1H-1,2,4-triazol-5-yl)methyl]pyrrolo[1,2-d][1,2,4]triazin-4-amine], the IC50 is 10 to 100 nM.

On to `C[C@]1(O)C[C@@H](Nc2nnc(-c3ccc(Br)cc3OC(F)F)c3cncn23)C1` [Compound 199, (1s,3s)-3-({1-[4-bromo-2-(difluoromethoxy)phenyl]imidazo[1,5-d][1,2,4]triazin-4-yl}amino)-1-methylcyclobutan-1-ol], for which the concentration for half-maximal inhibition (IC50) was in the range of 1 to 10 nM.

For `C[C@H](O)CNc1nnc(-c2ccc(C(F)(F)F)cc2OC(F)F)c2c(F)ccn12` [Compound 16, (2S)-1-({1-[2-(difluoromethoxy)-4-(trifluoromethyl)phenyl]-8-fluoropyrrolo[1,2-d][1,2,4]triazin-4-yl}amino)propan-2-ol], the IC50 was in the range of 10 to 100 nM.

On to `COc1ccc(-c2nnc(NC(C)c3cccc(O)c3)n3ccc(F)c23)c(C(F)(F)F)c1` (centres unmarked) [Compound 149, 3-[1-({8-fluoro-1-[4-methoxy-2-(trifluoromethyl)phenyl]pyrrolo[1,2-d][1,2,4]triazin-4-yl}amino)ethyl]phenol], for which the IC50 is 1 to 10 nM.

As to `O[C@H]1CCCC[C@H]1Nc1nnc(-c2ccc(C(F)(F)F)cc2CC(F)(F)F)c2cncn12` [Compound 401, (1S,2R)-2-({1-[2-(2,2,2-trifluoroethyl)-4-(trifluoromethyl)phenyl]imidazo[1,5-d][1,2,4]triazin-4-yl}amino)cyclohexan-1-ol], the IC50 was in the range of 10 to 100 nM.

Consider `COc1ccc(-c2nnc(N[C@H]3C[C@@](C)(O)C3)n3cccc23)c(C2CC2)c1` [Compound 104, (1s,3s)-3-{[1-(2-cyclopropyl-4-methoxyphenyl)pyrrolo[1,2-d][1,2,4]triazin-4-yl]amino}-1-methylcyclobutan-1-ol], for which the IC50 lay within 10 to 100 nM.

For the compound `O=C1NCCC1Nc1nnc(-c2ccc(OC(F)F)cc2OC(F)(F)F)c2cccn12` (centres unmarked) [Compound 154, 3-({1-[4-(difluoromethoxy)-2-(trifluoromethoxy)phenyl]pyrrolo[1,2-d][1,2,4]triazin-4-yl}amino)pyrrolidin-2-one], the IC50 was 1 to 10 nM.

In the case of `COc1ccc(-c2nnc(NC3CCNC3=O)n3cncc23)c(CC(F)(F)F)c1` (centres unmarked) [Compound 238, 3-({1-[4-methoxy-2-(2,2,2-trifluoroethyl)phenyl]imidazo[1,5-d][1,2,4]triazin-4-yl}amino)pyrrolidin-2-one], the IC50 is 1 to 10 nM.

Regarding `OCCN1CCC[C@@H](Nc2nnc(-c3ccc(Br)cc3C(F)(F)F)c3cncn23)C1` [Compound 201, 2-[(3R)-3-({1-[4-bromo-2-(trifluoromethyl)phenyl]imidazo[1,5-d][1,2,4]triazin-4-yl}amino)piperidin-1-yl]ethan-1-ol], the IC50 lay in the range of 1 to 10 nM.

Take `FC(F)(F)Cc1cc(C(F)(F)F)ccc1-c1nnc(Nc2cc[nH]n2)n2cncc12` [Compound 267, N-(1H-pyrazol-3-yl)-1-[2-(2,2,2-trifluoroethyl)-4-(trifluoromethyl)phenyl]imidazo[1,5-d][1,2,4]triazin-4-amine]: the IC50 fell in the range of 1 to 10 nM.

On to `O=C1NCCC1Nc1nnc(-c2ccc(C(F)(F)F)cc2OC(F)(F)F)c2ccnn12` (centres unmarked) [Compound 393, 3-({4-[2-(trifluoromethoxy)-4-(trifluoromethyl)phenyl]pyrazolo[1,5-d][1,2,4]triazin-7-yl}amino)pyrrolidin-2-one], for which the IC50 lay in the range of 10 to 100 nM.
